Among the data in patent US11312723B2, “Pyranopyrazole and pyrazolopyridine immunomodulators for treatment of autoimmune diseases” (The Rockefeller University, priority 2017, dated 2022) are IC50 values, retold here.

Where only a bound is given, the exact number is not on record here.

In general, IC50 refers to the concentration that inhibits the measured activity by half.

The target of one assay is Human FXIIa (Homo sapiens (Human), UniProt P00748). Kind of assay: Factor XIIa (FXIIa) inhibitory activity, chromogenic substrate (Pefachrome XIIa) cleavage. The settings on record: 10 min pre-incubation, Pefachrome XIIa 400 μM. Format: biochemical.
Sequence of Human FXIIa (P00748 373-615): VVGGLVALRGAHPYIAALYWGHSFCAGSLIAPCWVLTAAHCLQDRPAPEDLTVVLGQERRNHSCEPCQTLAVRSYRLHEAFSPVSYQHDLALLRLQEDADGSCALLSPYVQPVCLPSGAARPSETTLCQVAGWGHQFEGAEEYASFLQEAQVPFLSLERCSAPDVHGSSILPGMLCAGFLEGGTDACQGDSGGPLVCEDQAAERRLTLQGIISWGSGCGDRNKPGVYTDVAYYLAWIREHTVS
Sequence of Human FXIIa (P00748 20-372 partner): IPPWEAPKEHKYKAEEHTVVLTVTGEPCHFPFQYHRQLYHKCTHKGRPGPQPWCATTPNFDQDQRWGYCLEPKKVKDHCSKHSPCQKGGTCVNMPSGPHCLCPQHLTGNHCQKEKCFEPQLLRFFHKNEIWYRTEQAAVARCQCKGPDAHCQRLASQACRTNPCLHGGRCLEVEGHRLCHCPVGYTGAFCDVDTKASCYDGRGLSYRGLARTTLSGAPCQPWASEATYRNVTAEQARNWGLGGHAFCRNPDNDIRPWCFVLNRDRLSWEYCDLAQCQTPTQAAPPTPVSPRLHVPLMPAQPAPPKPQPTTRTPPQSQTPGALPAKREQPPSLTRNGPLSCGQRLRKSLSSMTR
The next assay deals with Human alpha-thrombin (Homo sapiens (Human), UniProt P00734). Kind of assay: Thrombin counterscreen for selectivity, fluorogenic substrate cleavage. Format: biochemical. The settings on record: 10 min pre-incubation, Boc-Val-Pro-Arg-AMC 20 μM. On the procedure: Counterscreens for Selectivity:
Thrombin. In a 96-well white opaque plate, 80 μl of assay buffer was added to each well. Test compounds were added, and serially diluted as above, to generate a concentration range of approximately 1-100 μM. Human alpha-thrombin (Enzyme Research Labs) was diluted in assay buffer to a final concentration of 12.5 nM. 80 μl of this enzyme solution was added to the assay wells. The enzyme/compound mixtures were incubated for 10 minutes at room temperature. Fluorogenic substrate (Boc-Val-Pro-Arg-7-amido-4-methylcoumarin; Sigma) was added to assay wells at a final concentration of 20 μM. The assay plate was spun for 1 minute at 1500 g and then read at 37° C. in a SpectraMax M2 plate reader (λex=380 nm and λem=460 nm). Activity was quantified as the rate of change in fluorescence, which corresponds to the rate of substrate cleavage. IC50 values were determined as the concentration of inhibitor that produced 50% of the rate of change of control wells without any inhibitor. For compounds with activity <1 μM, the assay was repeated with a lower concentration range, typically from 10-1000 nM.
(In general: A counterscreen serves to expose hits that act by an unwanted route or on another target.)

As for `CCN1CCc2nn(C(=O)C3CCNc4ccccc43)c(N)c2C1` (stereo not shown) [Example 93, (3-amino-5-ethyl-4,5,6,7-tetrahydro-pyrazolo[4,3-c]pyridin-2-yl)(1,2,3,4-tetrahydro-quinolin-4-yl)methanone], the half-inhibitory concentration (IC50) against Human FXIIa is 1.3 µM; at Human alpha-thrombin, more than 100 µM.

For `CCc1ccc2c(c1)C(C(=O)n1nc3c(c1N)CCN(S(C)(=O)=O)C3)CCN2` (stereo not shown) [Example 30, (3-amino-6-(methylsulfonyl)-4,5,6,7-tetrahydropyrazolo[3,4-c]pyridin-2-yl)(6-ethyl-1,2,3,4-tetrahydroquinolin-4-yl)methanone], the IC50 against Human FXIIa worked out at 0.05 µM; on Human alpha-thrombin, 22 µM.

Regarding `Nc1nn(C(=O)C2CCNc3ccccc32)c2c1CCN(C(=O)OCc1ccccc1)C2` (stereo not shown) [Example 117, benzyl 3-amino-1-(1,2,3,4-tetrahydro-quinoline-4-carbonyl)-4,5-dihydro-1H-pyrazolo[3,4-c]pyridine-6(7H)-carboxylate], the IC50 at Human FXIIa was determined as 45 µM; against Human alpha-thrombin, 5 µM.

With `CCN1CCc2c(nn(C(=O)C3CCNc4ccc(F)cc43)c2N)C1` (stereo not shown) [Example 163, (3-amino-6-ethyl-4,5,6,7-tetrahydro-pyrazolo[3,4-c]pyridin-2-yl)(6-fluoro-1,2,3,4-tetrahydro-quinolin-4-yl)methanone], the IC50 on Human FXIIa was 0.03 µM; at Human alpha-thrombin it was more than 100 µM.

As to `CCN1CCc2c(nn(C(=O)[C@H]3CCNc4c(C)cc(F)cc43)c2N)C1` (single isomer, unassigned) [Example 170, (S*)-(3-amino-6-ethyl-4,5,6,7-tetrahydro-pyrazolo[3,4-c]pyridin-2-yl)(6-fluoro-8-methyl-1,2,3,4-tetrahydro-quinolin-4-yl)methanone], the IC50 at Human FXIIa was 0.01 µM; at Human alpha-thrombin it was more than 90 µM.

Take `Cc1cc(F)cc2c1NCCC2C(=O)n1nc2c(c1N)CCOC2` (single isomer, unassigned) [Example 76, (S*)-(3-amino-4,5-dihydropyrano[3,4-c]pyrazol-2(7H)-yl)(6-fluoro-8-methyl-1,2,3,4-tetrahydroquinolin-4-yl)methanone]: the results for the IC50 against Human FXIIa and on Human alpha-thrombin were 0.05 µM and more than 100 µM, respectively.

As to `CS(=O)(=O)N1CCc2c(N)nn(C(=O)C3CCNc4ccccc43)c2C1` (stereo not shown) [Example 104, (3-amino-6-(methylsulfonyl)-4,5,6,7-tetrahydro-pyrazolo[3,4-c]pyridin-1-yl)(1,2,3,4-tetrahydro-quinolin-4-yl)methanone], the figures for the IC50 against Human FXIIa and against Human alpha-thrombin were 80 µM and more than 85 µM, respectively.

For the molecule `CS(=O)(=O)N1CCc2c(nn(C(=O)C3CCNc4ccc(F)cc43)c2N)C1` (single isomer, unassigned) [Example 16, (3-amino-6-(methylsulfonyl)-4,5,6,7-tetrahydropyrazolo[3,4-c]pyridin-2-yl)(6-fluoro-1,2,3,4-tetrahydroquinolin-4-yl)methanone], the IC50 at Human FXIIa was 0.06 µM; at Human alpha-thrombin it was 20 µM.

In the case of `CN1CCc2nn(C(=O)C3CCCc4[nH]ccc43)c(N)c2C1` (stereo not shown) [Example 97, (3-amino-5-methyl-4,5,6,7-tetrahydro-pyrazolo[4,3-c]pyridin-2-yl)(4,5,6,7-tetrahydro-1H-indol-4-yl)methanone], the half-maximal inhibitory concentration (IC50) at Human FXIIa is 8.5 µM; against Human alpha-thrombin, more than 80 µM.

As to `CS(=O)(=O)N1CCc2c(nn(C(=O)C3CCNc4ccc(F)cc43)c2N)C1` (single isomer, unassigned) [Example 18, (S*)-(3-amino-6-(methylsulfonyl)-4,5,6,7-tetrahydropyrazolo[3,4-c]pyridin-2-yl)(6-fluoro-1,2,3,4-tetrahydroquinolin-4-yl)methanone], the IC50 on Human FXIIa was determined as 0.03 µM; against Human alpha-thrombin it was 12.5 µM.

For `CS(=O)(=O)N1CCc2c(nn(C(=O)C3CCNc4ccc(Cl)cc43)c2N)C1` (stereo not shown) [Example 14, (3-amino-6-(methylsulfonyl)-4,5,6,7-tetrahydropyrazolo[3,4-c]pyridin-2-yl)(6-chloro-1,2,3,4-tetrahydroquinolin-4-yl)methanone], the IC50 against Human FXIIa was 0.04 µM; against Human alpha-thrombin it was 20 µM.

For `CC(=O)N1CCc2c(N)nn(C(=O)C3CCNc4ccccc43)c2C1` (stereo not shown) [Example 108, 1-(3-amino-1-(1,2,3,4-tetrahydro-quinoline-4-carbonyl)-4,5-dihydro-1H-pyrazolo[3,4-c]pyridin-6(7H)-yl)ethanone], the 50% inhibitory concentration (IC50) against Human FXIIa is 80 µM; at Human alpha-thrombin it was more than 150 µM.

As to `COC(=O)N1CCc2nn(C(=O)C3CCNc4ccccc43)c(N)c2C1` (stereo not shown) [Example 87, methyl 3-amino-2-(1,2,3,4-tetrahydro-quinoline-4-carbonyl)-6,7-dihydro-2H-pyrazolo[4,3-c]pyridine-5(4H)-carboxylate], the figures for the IC50 against Human FXIIa and against Human alpha-thrombin were 0.8 µM and more than 100 µM, respectively.

As to `CN1CCc2c(c(N)nn2C(=O)C2CCCc3[nH]ccc32)C1` (stereo not shown) [Example 98, (3-amino-5-methyl-4,5,6,7-tetrahydro-pyrazolo[4,3-c]pyridin-1-yl)(4,5,6,7-tetrahydro-1H-indol-4-yl)methanone], the IC50 worked out at 20 µM at Human FXIIa and 70 µM against Human alpha-thrombin.

With `CS(=O)(=O)N1CCc2c(nn(C(=O)C3CCNc4ncccc43)c2N)C1` (stereo not shown) [Example 41, (3-amino-6-(methylsulfonyl)-4,5,6,7-tetrahydropyrazolo[3,4-c]pyridin-2-yl)(1,2,3,4-tetrahydro-1,8-naphthyridin-4-yl)methanone], the IC50 against Human FXIIa was 1.7 µM; on Human alpha-thrombin, 4.4 µM.

For the molecule `Cc1cccc2c1NCCC2C(=O)n1nc2c(c1N)CCN(S(C)(=O)=O)C2` (stereo not shown) [Example 34, (3-amino-6-(methylsulfonyl)-4,5,6,7-tetrahydropyrazolo[3,4-c]pyridine-2-yl)(8-methyl-1,2,3,4-tetrahydroquinolin-4-yl)methanone], the figures for the IC50 against Human FXIIa and against Human alpha-thrombin were 0.04 µM and 23 µM, respectively.

For `CCN1CCc2c(nn(C(=O)[C@H]3CCNc4ccc(F)cc43)c2N)C1` (single isomer, unassigned) [Example 165, (S*)-(3-amino-6-ethyl-4,5,6,7-tetrahydro-pyrazolo[3,4-c]pyridin-2-yl)(6-fluoro-1,2,3,4-tetrahydro-quinolin-4-yl)methanone], the concentration for half-maximal inhibition (IC50) at Human FXIIa is 0.03 µM; against Human alpha-thrombin, more than 75 µM.

`CN1CCc2nn(C(=O)C3CCCc4[nH]c(Cl)cc43)c(N)c2C1` (stereo not shown) [Example 3, (3-amino-5-methyl-4,5,6,7-tetrahydropyrazolo[4,3-c]pyridin-2-yl)(2-chloro-4,5,6,7-tetrahydro-1H-indol-4-yl)methanone]: the IC50 on Human FXIIa is 0.35 µM; on Human alpha-thrombin, more than 35 µM.

For the molecule `CS(=O)(=O)N1CCc2c(N)nn(C(=O)C3CCNc4ccc(-c5ccncc5)cc43)c2C1` (stereo not shown) [Example 169, (3-amino-6-(methylsulfonyl)--4,5,6,7-tetrahydro-pyrazolo[3,4-c]pyridin-1-yl)(6-(pyridin-4-yl)-1,2,3,4-tetrahydro-quinolin-4-yl)methanone], the IC50 against Human FXIIa and at Human alpha-thrombin was 15 µM in each case.

`CS(=O)(=O)N1CCc2c(nn(C(=O)C3CCNc4ccc(-c5ccccc5)cc43)c2N)C1` (stereo not shown) [Example 49, (3-amino-6-(methylsulfonyl)-4,5,6,7-tetrahydropyrazolo[3,4-c]pyridin-2-yl)(6-phenyl-1,2,3,4-tetrahydroquinolin-4-yl)methanone]: the IC50 on Human FXIIa came to 11 µM; at Human alpha-thrombin, 17 µM.
